Data: patent publication US6200966A, “Compositions for inhibiting airway wall inflammation” (Amrad Operations Pty. Ltd., priority 1996, dated 2001)
Entries after “also recorded” stand apart in the source; their conditions may differ.

Experiments:
[1] = tested on: guinea-pig peritoneal macrophages; experiment: Superoxide anion release in peritoneal macrophages; type: cell-based; conditions: 10 μM
Procedure: (§1) Guinea-pig peritoneal macrophages were harvested and cultured according to out previous studies (Stewart & Phillips, 1989). Cells were incubated with stimuli including the chemotactic tripeptide, formyl methiony leucyl Phenylalanine (fMLP, 100 nM), Zymosan (400 μg/ml) or phorbol myristate acetate (PMA, 100 nM) for 30 min in the presence or absence of 2-methoxyestradiol (10 μM) added 15 min before the stimuli. […] All individual incubations were carried out in duplicate and experiments were carried out in macrophages from 5 guinea-pigs.

[2] = tested on: guinea-pig peritoneal macrophages; experiment: Prostacyclin (6-oxo-PGF1α) release in peritoneal macrophages; type: cell-based
Procedure: as §1, with “Cells” for “Guinea-pig peritoneal macrophages were harvested and cultured according to out previous studies (Stewart & Phillips, 1989). Cells”

glucocorticoid receptors = conditions: Merriam et al, 1980; cited from earlier work
[3] = tested on: cultured smooth muscle cells from rabbit aorta; conditions: Nishigaki et al., 1995; cited from earlier work
oestrogen receptors = conditions: Merriam et al, 1980; cited from earlier work
[4] = tested on: airway smooth muscle cells; conditions: 10 μM
adherent monocytes [5] = experiment: Tetramethyl benzidine oxidation in adherent monocytes; type: cell-based, human; conditions: PMA (1 μM) or zymosan (400 μg/ml); 10 μM
adherent monocytes [6] = experiment: Superoxide anion generation in adherent monocytes; type: cell-based, human
[7] = tested on: human cultured airway smooth muscle cells; experiment: DNA synthesis: [3H]-thymidine incorporation; type: cell-based
Procedure: Human bronchial airway smooth muscle was obtained from macroscopically normal lung resection specimens from lung transplant donors or recipients provided by the Alfred Hospital (Melbourne). Cultures were prepared as previously described in detail (Tomlinson et al., 1994). Briefly, the tissue was partially digested in Dulbecco's Modified Eagle's Medium (DMEM), [supplemented with 2 mM L-glutamine, 100 μg/ml streptomycin, 100 U/ml penicillin-G, 2 μg/ml amphotericin B, and 0.25% w/v bovine serum albumin (BSA)] containing 3 mg/ml collagenase for 30 minutes at 37° C. and approximately 0.5 g smooth muscle was further digested by a 2 hour incubation in 0.5 mg/ml elastase, followed by an 18 hour incubation in collagenase (3 mg/ml) at 37° C. Cell suspensions ere centrifuged (10 min, 100×g, 25° C.), washed three times in supplemented DMEM, resuspended in 25 ml DMEM containing 10% (v/v) heat-inactivated foetal calf serum (FCS), seeded into 25 cm^2 Falcon culture flasks and incubated (37° C., 5% CO2) for 7 to 10 days until monolayer confluence was reached. Cells were then harvested weekly by 10 min exposure to 0.5% trypsin, 1 mM EDTA and passaged at a 1:3 split ratio into 75 cm^2 Falcon culture flaskes. Cells at passage numbers 3 to 15 were used for experiments.
Cells were subcultured into 24-well plates at a 1:3 ratio and allowed to grow to monolayer confluency over a 72-96 hour period in an atmosphere of 5% CO2 in air at 37° C. The serum-containing medium was replaced with serum-free DMEM for a 24 hour period to produce growth arrest. In some experiments, the cells were pretreated with 2-methoxyestradiol 30 min before the addition of mitogen. The stimulant (mitogen) was added to the appropriate wells together with a supplement containing insulin, transferrin, and selenium (Monomed A, 1% v/v). Monomed A was added to provide progression factors which are essential for the mitogenic activity of growth factors such as thrombin, epidermal growth factor (EGF) and basic fibroblast growth factor (bFGF) (Stewart et al., 1995a). Mitogens and inhibitors were left in contact with cells from the time of addition until the end of the experiment, unless indicated otherwise. Cells were incubated for 24 hours (37° C., 5% CO2) before being pulsed with [^3 H]-thymidine (1 μCi/ml for four hours) to measure incorporation of radiolabel into newly synthesized DNA, according to out previous study (Stewart et al., 1995). Incorporation of radioactivity was determined by filtration at the end of the pulse-labelling period. The medium containing the radioactivity was aspirated and the cells were lysed by addition of 200 μl of 0.1M NaOH. The DNA was immobilised by filtration in a binding harvester (Packard Filtermate 196) on glass fibre filters (Packard, standard), which were then washed with 3×3 ml volumes of distilled water and a single 1 ml volume of 100% ethanol. The dried filters were counted in a Packard Topcount liquid scintillation counter. Protein synthesis rates were determined in experiments of analogous design to those described above, but [^3 H]-leucine replaced [^3 H]-thymidine in the pulsing incubation of 4 hours. Furthermore, in experiments to determine the effects of mitogens and 2-methoxyestradiol on the rate of protein synthesis, incubations with mitogen were carried out for a period of 48 hours. The longer duration of these experiments was required to allow sufficient time for cell division to occur.
Each treatment in an individual experiment was carried out in quadruplicate for DNA and protein synthesis experiments. Each experiment was performed in at least three different cultures obtained from three different individuals. For cell counting, single incubations were carried out in three cultures. Results are presented as grouped data from multiple cultures and are expressed as mean ±S. E. of n cultures. The degree of increment was calculated by dividing the response of treated wells by that of the control wells on the same 24-well plate.

[8] = tested on: endothelial cells and fibroblasts; conditions: actively proliferating or non-quiescent; cited from earlier work
tumours = conditions: cited from earlier work
[9] = 3 μM, thrombin, additional time points

Structure (SMILES): COc1cc2c(cc1O)CC[C@@H]1[C@@H]2CC[C@]2(C)[C@@H](O)CC[C@@H]12 [2-methoxyestradiol, 1,3,5[10]-estratriene-2,3,17-triol 2-methylether]
- superoxide anion response of macrophages, PMA ([1]; PMA (100 nM)): unaffected
- superoxide anion response of macrophages, fMLP ([1]; fMLP (100 nM)): reduced
- superoxide anion response of macrophages, zymosan ([1]; zymosan (400 μg/ml)): reduced; also recorded: completely blocked
- inhibition at 10 µM ([2]; Cavia porcellus, Peritoneal macrophage, 0.5 h, PMA (100 nM), read-out: reduction of 6-oxo-PGF1α / prostacyclin response, PMA): 50%
- 6-oxo-PGF1α / prostacyclin generation, fMLP ([2]; fMLP (100 nM), 10 μM): completely blocked
- affinity for glucocorticoid receptors (glucocorticoid receptors): not to have significant affinity
- proliferation of rabbit aorta smooth muscle cells [3]: anti-proliferative effects
- affinity for oestrogen receptors (oestrogen receptors): not to have significant affinity
- cell detachment from the culture plates [4]: no cell detachment
- protein synthesis rates (as evidence against cytotoxicity) [4]: not altered
- oxidation of tetramethyl benzidine in adherent monocytes (adherent monocytes [5]): unaffected
- superoxide anion generation in adherent monocytes, PMA (adherent monocytes [6]; response to PMA): unaffected
- superoxide anion generation in adherent monocytes, zymosan (adherent monocytes [6]; zymosan-stimulated, 10 μM, at least some donors): markedly inhibited
- DNA synthesis, addition at 18 hours or later after thrombin ([7]; 3 μM, thrombin 0.3 U/ml): no effect
- time of addition after thrombin giving maximum inhibition ([7]; 3 μM, thrombin 0.3 U/ml, first time-course): 2 h
- thrombin-stimulated DNA synthesis, addition up to 4 h after thrombin ([7]; 3 μM, thrombin 0.3 U/ml, time-course): inhibited
- persistence of significant inhibition after thrombin addition [7, 9]: up to 6 hours
- time of addition giving the highest level of activity [7, 9]: either simultaneously or 1 hour after thrombin
- relative potency among analogues examined ([7]; DNA synthesis): most potent of the analogues examined
- DNA synthesis in the presence of EGF or 10% FCS ([7]; EGF 3 nM or 10% FCS, relative to thrombin, bFGF, lower FCS): inhibited to a significantly lesser extent
- FCS (1%)-stimulated DNA synthesis, 10 μM ([7]; FCS 1%, 10 μM): inhibition was observed at 10 μM; also recorded: equivalent to 2-methoxyestradiol (10 μM)
- FCS (1%)-stimulated DNA synthesis, lower concentrations ([7]; FCS 1%, lower concentrations): enhanced
- inhibition with FCS (10%) ([7]; FCS 10%): significantly less inhibited
- inhibition at 3 µM ([7]; Homo sapiens, 3 μM, thrombin 0.3 U/ml, read-out: inhibition of DNA synthesis, addition between 4 and 14 hours after thrombin): ~20%
- activity at 10 µM ([7]; Homo sapiens, thrombin 0.3 U/ml, 10 μM, read-out: response to thrombin ([3H]-thymidine), remaining): ~10%
- concentration-response of enhancement of thrombin-stimulated DNA synthesis ([7]; thrombin): bell-shaped concentration-response curve
- enhancement of thrombin-stimulated DNA synthesis, 10 μM ([7]; thrombin 0.3 U/ml, 10 μM): level of enhancement declined at 10 μM
- thrombin-stimulated incorporation of [3H]-thymidine ([7]; thrombin 0.3 U/ml, 0.3-10 μM, 30 min pretreatment): concentration-dependentreduction
- thrombin-stimulated DNA synthesis (analogues) ([7]; thrombin 0.3 U/ml, up to 3 μM): enhanced thrombin-stimulated DNA synthesis
- proliferation of endothelial cells and fibroblasts [8]: inhibits proliferation
- growth of tumours (tumours; Fotsis et al., 1994): inhibited the growth of tumurs
- tumour neovascularization (tumours; Klauber et al, 1997): Inhibition of tumour neovascularization
